± gives the standard deviation of the averaged measurements.
Key:
[1] = compound: Cn1c(=O)n(-c2ccc(C(C)(C)C#N)cc2)c2c3cc(-c4cnc5ccccc5c4)ccc3ncc21 [BEZ-235]; assay: surviving fraction relative to DMSO-only wells; higher = less growth inhibition; conditions: exposure time: 5 days
How it was run: (§1)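 Continuous five-day exposure to inhibitors at 0.5, 1, 5, 10, 50, 100, 500 and 1000 nM started 24 hours after log-phase tumour cell lines were seeded at 250–500 cells per well in 384-well plates. Luminescence was read after 10 minutes at room temperature. Viability is given as surviving fraction, meaning CellTiter-Glo luminescence normalised to the median of DMSO-only wells.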

[2] = compound: Cn1ncnc1[C@H]1c2n[nH]c(=O)c3cc(F)cc(c23)N[C@@H]1c1ccc(F)cc1 [BMN-673]; assay: as above; conditions: exposure time: 5 days
How it was run: as §1

Test System	surviving fraction ([1]; 0.5 nM)	surviving fraction ([1]; 1 nM)	surviving fraction ([1]; 5 nM)	surviving fraction ([1]; 10 nM)	surviving fraction ([1]; 50 nM)	surviving fraction ([1]; 100 nM)	surviving fraction ([1]; 500 nM)	surviving fraction ([1]; 1000 nM)	surviving fraction ([2]; 0.5 nM)	surviving fraction ([2]; 1 nM)	surviving fraction ([2]; 5 nM)	surviving fraction ([2]; 10 nM)	surviving fraction ([2]; 50 nM)	surviving fraction ([2]; 100 nM)	surviving fraction ([2]; 500 nM)	surviving fraction ([2]; 1000 nM)
HCC1395 BREAST	1.03 ± 0.12	0.967 ± 0.11	1.14 ± 0.095	1.09 ± 0.037	0.988 ± 0.12	1 ± 0.13	0.788 ± 0.12	0.759 ± 0.17	1 ± 0.13	0.991 ± 0.081	0.86 ± 0.054	0.967 ± 0.045	0.892 ± 0.064	0.8195 ± 0.0048	0.715 ± 0.039	0.637 ± 0.12
HCC1806 BREAST	0.958 ± 0.16	0.986 ± 0.14	1.17 ± 0.085	1.15 ± 0.1	0.837 ± 0.016	0.662 ± 0.05	0.388 ± 0.036	0.317 ± 0.041	0.904 ± 0.043	0.875 ± 0.021	0.451 ± 0.035	0.313 ± 0.021	0.234 ± 0.0079	0.186 ± 0.0061	0.171 ± 0.017	0.168 ± 0.015
HCC1954 BREAST	1.02 ± 0.06	0.947 ± 0.1	1.05 ± 0.064	0.875 ± 0.11	0.492 ± 0.02	0.363 ± 0.02	0.172 ± 0.011	0.127 ± 0.0092	1.01 ± 0.17	1.34 ± 0.34	1.25 ± 0.17	1.21 ± 0.12	0.907 ± 0.038	0.804 ± 0.042	0.71 ± 0.12	0.74 ± 0.072
HCT15 LARGE INTESTINE	1.04 ± 0.026	1.03 ± 0.057	1.11 ± 0.041	1.1 ± 0.033	0.655 ± 0.035	0.525 ± 0.0089	0.249 ± 0.027	0.209 ± 0.0044	1.09 ± 0.078	1.03 ± 0.086	1.06 ± 0.015	0.945 ± 0.021	0.584 ± 0.14	0.44 ± 0.058	0.146 ± 0.022	0.102 ± 0.0078
HELA CERVIX	1.05 ± 0.087	1.09 ± 0.069	1.112 ± 0.0048	1.02 ± 0.035	1.12 ± 0.061	1.2 ± 0.028	0.7 ± 0.019	0.4533 ± 0.0038	1 ± 0.045	1 ± 0.058	1.07 ± 0.038	1.031 ± 0.0089	1.1 ± 0.11	1.14 ± 0.11	0.736 ± 0.037	0.606 ± 0.035
HOS BONE	1.02 ± 0.034	1.05 ± 0.036	1.02 ± 0.014	1.01 ± 0.018	0.763 ± 0.034	0.591 ± 0.017	0.317 ± 0.015	0.285 ± 0.015	1.04 ± 0.037	1 ± 0.018	0.976 ± 0.018	0.974 ± 0.036	0.993 ± 0.04	0.96 ± 0.036	0.596 ± 0.022	0.282 ± 0.026
HOSMNG BONE	0.956 ± 0.014	0.96 ± 0.041	0.929 ± 0.022	0.958 ± 0.05	0.917 ± 0.044	0.772 ± 0.035	0.426 ± 0.0052	0.297 ± 0.012	1.07 ± 0.056	1.04 ± 0.029	0.968 ± 0.017	1.01 ± 0.019	1.03 ± 0.031	1.05 ± 0.046	0.849 ± 0.047	0.645 ± 0.023
HSSYII SYNOVIAL	0.963 ± 0.072	0.921 ± 0.062	0.933 ± 0.012	0.88 ± 0.032	0.548 ± 0.017	0.38 ± 0.0082	0.165 ± 0.0072	0.129 ± 0.013	0.867 ± 0.022	0.819 ± 0.015	0.506 ± 0.026	0.34 ± 0.017	0.19 ± 0.0066	0.132 ± 0.011	0.0702 ± 0.0064	0.06017 ± 0.00029
HT1080 SOFT TISSUE	0.985 ± 0.022	1.03 ± 0.011	1 ± 0.025	0.996 ± 0.055	0.6683 ± 0.0059	0.496 ± 0.021	0.221 ± 0.01	0.162 ± 0.0061	1 ± 0.037	0.967 ± 0.042	0.73 ± 0.024	0.524 ± 0.02	0.375 ± 0.018	0.312 ± 0.0085	0.204 ± 0.0027	0.187 ± 0.014
HU09 BONE	1.04 ± 0.18	1.07 ± 0.059	1.19 ± 0.053	1.12 ± 0.1	0.572 ± 0.025	0.416 ± 0.025	0.181 ± 0.013	0.134 ± 0.006	0.97 ± 0.066	0.978 ± 0.056	0.898 ± 0.067	0.812 ± 0.11	0.486 ± 0.046	0.437 ± 0.038	0.104 ± 0.018	0.058 ± 0.008
HUO3N1 BONE	0.992 ± 0.041	1.04 ± 0.042	0.946 ± 0.025	0.994 ± 0.039	0.838 ± 0.071	0.631 ± 0.031	0.341 ± 0.0053	0.258 ± 0.0061	0.991 ± 0.023	0.998 ± 0.043	0.945 ± 0.038	0.9 ± 0.014	0.8017 ± 0.0063	0.658 ± 0.015	0.448 ± 0.03	0.357 ± 0.021
JIMT1 BREAST	1.03 ± 0.031	0.992 ± 0.024	0.983 ± 0.0095	0.992 ± 0.019	0.732 ± 0.03	0.464 ± 0.04	0.21 ± 0.013	0.194 ± 0.009	0.928 ± 0.041	0.913 ± 0.025	0.848 ± 0.011	0.822 ± 0.011	0.71 ± 0.035	0.617 ± 0.063	0.474 ± 0.027	0.395 ± 0.033
JURKAT HAEMATOPOIETIC AND LYMPHOID TISSUE	1.05 ± 0.03	1.07 ± 0.032	1.05 ± 0.024	1.05 ± 0.03	0.788 ± 0.021	0.582 ± 0.021	0.211 ± 0.0053	0.056 ± 0.001	1.04 ± 0.027	1.04 ± 0.015	0.863 ± 0.035	0.838 ± 0.014	0.601 ± 0.049	0.503 ± 0.033	0.123 ± 0.007	0.0493 ± 0.0047
KPD BONE	0.977 ± 0.065	1.01 ± 0.061	1 ± 0.024	0.951 ± 0.032	0.525 ± 0.029	0.361 ± 0.0087	0.0903 ± 0.0011	0.0727 ± 0.0025	0.971 ± 0.046	0.877 ± 0.053	0.814 ± 0.045	0.463 ± 0.28	0.531 ± 0.03	0.437 ± 0.02	0.338 ± 0.01	0.3337 ± 0.0032
LM7 BONE	0.941 ± 0.042	1 ± 0.1	1.02 ± 0.094	1.07 ± 0.062	0.975 ± 0.077	0.845 ± 0.063	0.366 ± 0.016	0.312 ± 0.024	0.975 ± 0.042	0.987 ± 0.068	0.764 ± 0.051	0.573 ± 0.028	0.395 ± 0.027	0.312 ± 0.028	0.227 ± 0.015	0.197 ± 0.024
LNCAP PROSTATE	0.998 ± 0.11	0.934 ± 0.06	0.887 ± 0.14	0.9 ± 0.12	0.405 ± 0.016	0.255 ± 0.039	0.087 ± 0.014	0.0853 ± 0.011	0.85 ± 0.052	0.849 ± 0.05	0.604 ± 0.059	0.407 ± 0.037	0.297 ± 0.015	0.254 ± 0.0095	0.181 ± 0.014	0.165 ± 0.022
MCF7 BREAST	0.934 ± 0.071	0.961 ± 0.017	0.943 ± 0.064	0.941 ± 0.036	0.681 ± 0.023	0.5461 ± 0.0041	0.328 ± 0.012	0.2896 ± 0.0025	0.952 ± 0.053	0.95 ± 0.069	0.838 ± 0.029	0.802 ± 0.046	0.756 ± 0.03	0.732 ± 0.026	0.679 ± 0.024	0.62 ± 0.011
MDAMB134 BREAST	1.08 ± 0.058	1.17 ± 0.033	1.11 ± 0.024	1.09 ± 0.021	0.881 ± 0.025	0.83 ± 0.083	0.474 ± 0.15	0.476 ± 0.03	0.955 ± 0.085	0.908 ± 0.14	0.971 ± 0.057	0.929 ± 0.014	1.01 ± 0.067	0.991 ± 0.025	0.857 ± 0.23	0.775 ± 0.08
MDAMB157 BREAST	0.983 ± 0.056	0.974 ± 0.1	0.936 ± 0.12	1.02 ± 0.11	0.825 ± 0.094	0.752 ± 0.081	0.454 ± 0.06	0.381 ± 0.008	0.999 ± 0.13	0.944 ± 0.081	0.844 ± 0.084	0.795 ± 0.1	0.541 ± 0.01	0.392 ± 0.01	0.228 ± 0.017	0.257 ± 0.036
MDAMB231 BREAST	1.01 ± 0.026	1.02 ± 0.034	1.01 ± 0.032	0.959 ± 0.037	0.574 ± 0.016	0.437 ± 0.019	0.231 ± 0.0068	0.227 ± 0.013	0.98 ± 0.029	0.972 ± 0.02	0.898 ± 0.019	0.838 ± 0.022	0.711 ± 0.053	0.639 ± 0.011	0.523 ± 0.021	0.454 ± 0.03
MDAMB361 BREAST	0.888 ± 0.068	0.854 ± 0.045	0.904 ± 0.03	0.882 ± 0.051	0.794 ± 0.078	0.636 ± 0.037	0.355 ± 0.015	0.313 ± 0.02	0.804 ± 0.064	0.806 ± 0.018	0.829 ± 0.013	0.82 ± 0.041	0.856 ± 0.026	0.798 ± 0.07	0.782 ± 0.038	0.764 ± 0.062

Source: the supplement of paper PMC6045584
